The values below come from patent publication US20100136029A1, “Use of Tri-Substituted Glycerol Compounds for the Treatment of Hematological Malignancies” (UNIVERSITATSKLINIKUM HAMBURG-EPPENDORF, priority 2006, published 2010).

Entries after “also recorded” stand apart in the source; their conditions may differ.

In one data set the test system is Jurkat cells. Briefly: cells. Particulars: Homo sapiens, 20 h. The procedure: Cell culture was performed as described in FIG. 1. ET-18-OCH3 was added in a final concentration of 2.5 or 5.0 μg/ml (“E2.5” and “E5”, respectively) without or in combination with 5 or 10 ng/ml bortezomib (“Vel5” and “Vel10”, respectively), and the cells were incubated for 20 h. Cell death was assessed as described in FIG. 1. The results are expressed as mean±SEM of three independent experiments.
(§1) The following human cell lines were used: • 1. KMS-12-BM (DMSZ no. ACC 551), bone marrow cells; myeloma/plasmacytoma; none of the genetic alterations defined herein; Chesi, M. et al. (2001), supra. • 2. K562 (ATCC no. CCL-243); bone marrow cells; CML; none of the genetic alterations defined herein; Delgado, M. D. et al. (2001), supra. • 3. […] OPM-2 (ATCC no. CRL-13007); lymphoblast cells; myeloma; t(4;14) chromosomal translocation; K650E FGFR3 gene mutation (AAG→GAG at codon 650); Chesi, M. et al. (2001), supra. • 5. NCI-H929 (ATCC no. CRL-9068); bone marrow cells; myeloma/plasmacytoma; t(4;14) chromosomal translocation; N13-G>D N-ras gene mutation (GGT→GAT at codon 13); Chesi, M. et al. (2001), supra. • 6. U266 (ATCC no. TIB-196); peripheral blood cells; myeloma/plasmacytoma; none of the genetic alterations defined herein; Chesi, M. et al. (2001), supra. • 7. HL60 (ATCC no. CCL-240); peripheral blood cells; AML; N61-Q>R N-ras gene mutation (CAA→CGA at codon 61); Bos, J. L. et al. (1984), supra. • 8. Jurkat (ATCC no. TIB-152); peripheral blood cells; ALL; 2 by deletion and 9 by insertion at codon 234 in exon 7 of the PTEN gene (resulting in downstream stop codons); Sakai, A. et al. (1998), supra.
(§2) The cells were grown in 96-well tissue culture plates in a volume of 200 μl to a concentration of 1×10^6 cells/ml. Then, the cells were incubated for 20 h with a final concentration of 5 μg/ml, 10 μg/ml, and 20 μg/ml 1-O-octadecyl-2-O-methyl-glycero-3-phosphocholine (ET-18-OCH3), respectively. Cell death was assessed by staining the cells with 7-amino-actinomycin D (Calbiochem, Darmstadt, Germany; final concentration 200 μg/ml) and analyzed via flow cytometry using a FACS-Scan flow cytometer (BD Biosciences, San Jose, Calif., USA) as described (see, e.g., Schmid, I. et al. (1994) J. Immunol. Meth. 170, 145-157; Ayuk, F. A. et al. (2005) Exp. Hematol. 33, 1531-1536).
(§3) The cells were again grown in 96-well tissue culture plates in a volume of 200 μl to a concentration of 1×10^6 cells/ml. Then, the cells were incubated for 20 h with the respective drugs. […] The cytotoxic effect of ET-18-OCH3 in combination with bortezomib was determined in Jurkat, HL60 cells, and RPMI8226 cell, whereas the cytotoxic effect of ET-18-OCH3 in combination with cytarabine, fludarabine and etoposide, respectively, in Jurkat and HL60 cells. Cell death was assessed as described in example 1.

Another data set relates to RPMI8226. Briefly: Cytotoxicity (cell death) by 7-amino-actinomycin D staining and flow cytometry, RPMI8226 cells. As to the method:
(§4) The following cell lines were used: KMS-12-BM, K562, RPMI8226, OPM-2, NCI-H929, U266, and HL60. The cells were grown in 96-well tissue culture plates in a volume of 200 μl to a concentration of 1×10^6 cells/ml. Then, the cells were incubated for 20 h with 5 μg/ml, 10 μg/ml, and 20 μg/ml ET-18-OCH3 (final concentrations), respectively. Cell death was assessed by staining the cells with 7-amino-actinomycin D (final concentration 200 μg/ml) and analyzed via flow cytometry as described (see, e.g., Schmid, I. et al. (1994) J. Immunol. Meth. 170, 145-157; Ayuk, F. A. et al. (2005) Exp. Hematol. 33, 1531-1536).
as §1, §2, §3
(Flow cytometry measures light scatter and fluorescence of single cells or particles in a stream.)

The next data set relates to HL60 cells. Briefly: Cytotoxicity (cell death) by 7-amino-actinomycin D staining and flow cytometry, HL60 cells. As to the method: as §4, §1, §2, §3
A further data set has as its system NCI-H929. Briefly: Cytotoxicity (cell death) by 7-amino-actinomycin D staining and flow cytometry, NCI-H929 cells. Type of data set: cell-based. The source says:
(§5) The following human cell lines were used: • 1.

The test system of another data set is OPM-2 cells. Briefly: Cytotoxicity (cell death) by 7-amino-actinomycin D staining and flow cytometry, OPM-2 cells. Type of data set: cell-based.
From the text: as §5

Another data set has as its system U266 cells. Briefly: Cytotoxicity (cell death) by 7-amino-actinomycin D staining and flow cytometry, U266 cells. Format: cell-based, human. The conditions noted are these: U266, 20 h, 5, 10 and 20 μg/ml ET-18-OCH3, FIG. 1.
From the text: as §5

The next data set concerns K562. Briefly: Cytotoxicity (cell death) by 7-amino-actinomycin D staining and flow cytometry, K562 cells. The conditions noted are these: K562, 20 h, 5, 10 and 20 μg/ml ET-18-OCH3, FIG. 1. Format: cell-based, human.
From the text: as §5

A further data set has as its system KMS-12-BM. Briefly: Cytotoxicity (cell death) by 7-amino-actinomycin D staining and flow cytometry, KMS-12-BM cells. Format: cell-based, human. The conditions noted are these: 20 h, 5, 10 and 20 μg/ml ET-18-OCH3, FIG. 1.
From the text: as §5

For the molecule `CC(C)C[C@H](NC(=O)[C@H](Cc1ccccc1)NC(=O)c1cnccn1)B(O)O` [Bortezomib, bortezomib], the cytotoxicity at 0.005 µg/mL worked out at 0.4 ± 0.5% in the data set with Jurkat cells; 7.3 ± 4.5% with RPMI8226 (Homo sapiens, RPMI-8226, 20 h); 2.7 ± 1.9% with HL60 cells (Homo sapiens, HL-60, 20 h). Further, the cytotoxicity at 0.01 µg/mL in the data set on Jurkat cells was 3.6 ± 1.4%; with RPMI8226 (Homo sapiens, RPMI-8226, 20 h), 25.1 ± 4%; in the data set with HL60 cells (Homo sapiens, HL-60, 20 h) it was 10.9 ± 3.7%.

For `Nc1ccn([C@@H]2O[C@H](CO)[C@@H](O)[C@@H]2O)c(=O)n1` [Cytarabine, cytarabine], the cytotoxicity at 10 µM with Jurkat cells was 11.1 ± 0.5%; in the data set on HL60 cells (Homo sapiens, HL-60, 20 h), 24 ± 2.8%. Moreover, the cytotoxicity at 40 µM in the data set on Jurkat cells is 12.4 ± 1.2%; in the data set with HL60 cells (Homo sapiens, HL-60, 20 h) it was 26.9 ± 5%.

In the case of `CCCCCCCCCCCCCCCCCCOCC(COP(=O)([O-])OCC[N+](C)(C)C)OC` (stereo not shown) [ET-18-OCH3, 1-O-octadecyl-2-O-methyl-glycero-3-phosphocholine], the “cell death in words” value with NCI-H929 (NCI-H929, 20 h, 20 μg/ml ET-18-OCH3, FIG. 1) is “almost complete cell death”; with RPMI8226 (RPMI8226, 20 h, 20 μg/ml ET-18-OCH3, FIG. 1), “almost complete cell death”; in the data set on HL60 cells (HL60, 20 h, 20 μg/ml ET-18-OCH3, FIG. 1), “almost complete cell death”. The “cytotoxic effect, dose dependence” value is recorded as “dose-dependent effect” in the data set with NCI-H929 (NCI-H929, 20 h, 5, 10 and 20 μg/ml ET-18-OCH3, FIG. 1); “dose-dependent effect” in the data set with OPM-2 cells (OPM-2, 20 h, 5, 10 and 20 μg/ml ET-18-OCH3, FIG. 1); “dose-dependent effect” in the data set with RPMI8226 (RPMI8226, 20 h, 5, 10 and 20 μg/ml ET-18-OCH3, FIG. 1); “dose-dependent effect” in the data set on HL60 cells. In the data set on OPM-2 cells (OPM-2, 20 h, 20 μg/ml ET-18-OCH3, FIG. 1), the cells died result was “about 75%”. In addition, the “cytotoxic effect (cell death) in words” value in the data set with U266 cells is on record as “do not respond to ET-18-OCH3 at all; also recorded: significantly reduced or even almost abolished”; with K562 it was “dose-dependent effect; also recorded: significantly reduced or even almost abolished”; in the data set on KMS-12-BM, “significantly reduced or even almost abolished; also recorded: dose-dependent effect”. The cytotoxicity at 2.5 µg/mL is 2.1 ± 1% in the data set with Jurkat cells; 11.2 ± 8.1% with RPMI8226 (Homo sapiens, RPMI-8226, 20 h); 11.3 ± 7.3% with HL60 cells (Homo sapiens, HL-60, 20 h). Further, the cytotoxicity at 5 µg/mL in the data set with Jurkat cells was determined as 13.1 ± 5.3%; in the data set on RPMI8226 (Homo sapiens, RPMI-8226, 20 h) it was 34.7 ± 13.2%; in the data set on HL60 cells (Homo sapiens, HL-60, 20 h), 35 ± 15.9%.

For the molecule `COc1cc([C@@H]2c3cc4c(cc3[C@@H](O[C@@H]3O[C@@H]5CO[C@@H](C)O[C@H]5[C@H](O)[C@H]3O)[C@H]3COC(=O)[C@H]23)OCO4)cc(OC)c1O` [Etoposide, etoposide], in the data set on Jurkat cells, the cytotoxicity at 1 µM worked out at 5.9 ± 1.1%, the cytotoxicity at 2.5 µM came out at 10 ± 0.8% and the cytotoxicity at 5 µM was determined as 16.8 ± 8.4%. Moreover, in the data set on HL60 cells (Homo sapiens, HL-60, 20 h), the cytotoxicity at 1 µM was found to be 4.1 ± 0.7%, the cytotoxicity at 2.5 µM is 10.7 ± 5.4% and the cytotoxicity at 5 µM came to 23.3 ± 8.2%.

`Nc1nc(F)nc2c1ncn2[C@@H]1O[C@H](CO)[C@@H](O)[C@@H]1O` [Fludarabine, fludarabine]: the cytotoxicity at 10 µM in the data set on Jurkat cells was 2.4 ± 0.9%; with HL60 cells (Homo sapiens, HL-60, 20 h), 13.8 ± 9.4%. The cytotoxicity at 50 µM in the data set with Jurkat cells worked out at 6.2 ± 2.4%; in the data set with HL60 cells (Homo sapiens, HL-60, 20 h) it was 37.2 ± 4.6%.
